# Data as given in US20240252454A1, “COMPOSITION COMPRISING AN INHIBITOR OF MITOCHONDRIAL TRANSCRIPTION” (LEAD DISCOVERY CENTER GMBH, priority 2021, published 2024).
# Key:
# Experiment in all cases: SRB assay, IMT combined with inhibitor
# Type in all cases: cell-based
# A2780 = A2780 (ovary); concentration series of the labelled inhibitor + fixed concentration of IMT (3S)-1-[(2R)-2-[4-(2-chloro-4-fluoro-phenyl)-2-oxo-chromen-7-yl]oxypropanoyl]piperidine-3-carboxylic acid (Table 3: 40 nM, 120 h); negative=synergistic, positive=antagonistic
# IMR90 = IMR90 (lung); concentration series of the labelled inhibitor + fixed concentration of IMT (3S)-1-[(2R)-2-[4-(2-chloro-4-fluoro-phenyl)-2-oxo-chromen-7-yl]oxypropanoyl]piperidine-3-carboxylic acid (Table 3: 40 nM, 120 h); negative=synergistic, positive=antagonistic
# Procedure: (§1) Solforhodamine B assay is carried out as described in Voigt W. (2005) Sulforhodamine B Assay and Chemosensitivity. (Methods in Molecular Medicine™, vol 110. Humana Press. https://doi.org/10.1385/1-59259-869-2:039).
# (§2) The determination of changes in cellular biomass was based on the Solforhodamine B assay format, carried out as described in Voigt W. (2005) Sulforhodamine B Assay and Chemosensitivity. (Methods in Molecular Medicine™, vol 110. Humana Press. https://doi.org/10.1385/1-59259-869-2:039).
# (§3) All in vitro cell culture experiments were carried out under near physiological glucose concentrations (5 mM) in at least two independent replicates.
# (§4) First, 30 different cell lines from 14 different tissue types were tested in the SRB assay format. The cells were examined individually for changes in growth over a period of 120 hours with dilution series of both inhibitors. Untreated cells were used as a negative control group. Subsequently, a dilution series of the respective MAPK signalling pathway SOCs was treated in combination with a fixed concentration of 40 nM (3S)-1-[(2R)-2-[4-(2-chloro-4-fluoro-phenyl)-2-oxo-chromen-7-yl]oxypropanoyl]piperidine-3-carboxylic acid.
# HEPG2 = HEPG2 (liver); concentration series of the labelled inhibitor + fixed concentration of IMT (3S)-1-[(2R)-2-[4-(2-chloro-4-fluoro-phenyl)-2-oxo-chromen-7-yl]oxypropanoyl]piperidine-3-carboxylic acid (Table 3: 40 nM, 120 h); negative=synergistic, positive=antagonistic
# Procedure: as §1, §2, §3, §4
# MHHES1 = MHHES1 (bone); concentration series of the labelled inhibitor + fixed concentration of IMT (3S)-1-[(2R)-2-[4-(2-chloro-4-fluoro-phenyl)-2-oxo-chromen-7-yl]oxypropanoyl]piperidine-3-carboxylic acid (Table 3: 40 nM, 120 h); negative=synergistic, positive=antagonistic
# Procedure: as §1, §2, §3, §4
# PANC1 = PANC1 (pancreas); concentration series of the labelled inhibitor + fixed concentration of IMT (3S)-1-[(2R)-2-[4-(2-chloro-4-fluoro-phenyl)-2-oxo-chromen-7-yl]oxypropanoyl]piperidine-3-carboxylic acid (Table 3: 40 nM, 120 h); negative=synergistic, positive=antagonistic
# Procedure: as §1, §2, §3, §4
# HCT116 = HCT116 (colon); concentration series of the labelled inhibitor + fixed concentration of IMT (3S)-1-[(2R)-2-[4-(2-chloro-4-fluoro-phenyl)-2-oxo-chromen-7-yl]oxypropanoyl]piperidine-3-carboxylic acid (Table 3: 40 nM, 120 h); negative=synergistic, positive=antagonistic
# Procedure: as §1, §2, §3, §4
# COLO205 = COLO205 (colon); concentration series of the labelled inhibitor + fixed concentration of IMT (3S)-1-[(2R)-2-[4-(2-chloro-4-fluoro-phenyl)-2-oxo-chromen-7-yl]oxypropanoyl]piperidine-3-carboxylic acid (Table 3: 40 nM, 120 h); negative=synergistic, positive=antagonistic
# Procedure: as §1, §2, §3, §4
# SW620 = SW620 (colon); concentration series of the labelled inhibitor + fixed concentration of IMT (3S)-1-[(2R)-2-[4-(2-chloro-4-fluoro-phenyl)-2-oxo-chromen-7-yl]oxypropanoyl]piperidine-3-carboxylic acid (Table 3: 40 nM, 120 h); negative=synergistic, positive=antagonistic
# Procedure: as §1, §2, §3, §4
# SKMEL5 = SKMEL5 (skin); concentration series of the labelled inhibitor + fixed concentration of IMT (3S)-1-[(2R)-2-[4-(2-chloro-4-fluoro-phenyl)-2-oxo-chromen-7-yl]oxypropanoyl]piperidine-3-carboxylic acid (Table 3: 40 nM, 120 h); negative=synergistic, positive=antagonistic
# Procedure: as §1, §2, §3, §4
# U2OS = U2OS (bone); concentration series of the labelled inhibitor + fixed concentration of IMT (3S)-1-[(2R)-2-[4-(2-chloro-4-fluoro-phenyl)-2-oxo-chromen-7-yl]oxypropanoyl]piperidine-3-carboxylic acid (Table 3: 40 nM, 120 h); negative=synergistic, positive=antagonistic
# Procedure: as §1, §2, §3, §4
# U87MG = U87MG (brain); concentration series of the labelled inhibitor + fixed concentration of IMT (3S)-1-[(2R)-2-[4-(2-chloro-4-fluoro-phenyl)-2-oxo-chromen-7-yl]oxypropanoyl]piperidine-3-carboxylic acid (Table 3: 40 nM, 120 h); negative=synergistic, positive=antagonistic
# Procedure: as §1, §2, §3, §4
# HT29 = HT29 (colon); concentration series of the labelled inhibitor + fixed concentration of IMT (3S)-1-[(2R)-2-[4-(2-chloro-4-fluoro-phenyl)-2-oxo-chromen-7-yl]oxypropanoyl]piperidine-3-carboxylic acid (Table 3: 40 nM, 120 h); negative=synergistic, positive=antagonistic
# Procedure: as §1, §2, §3, §4
# GRANTA-519 = GRANTA-519 (hematological); concentration series of the labelled inhibitor + fixed concentration of IMT (3S)-1-[(2R)-2-[4-(2-chloro-4-fluoro-phenyl)-2-oxo-chromen-7-yl]oxypropanoyl]piperidine-3-carboxylic acid (Table 3: 40 nM, 120 h); negative=synergistic, positive=antagonistic
# Procedure: as §1, §2, §3, §4
smiles,measurement,setting,value
O=C(c1ccc(F)c(F)c1Nc1ccc(I)cc1F)N1CC(O)([C@@H]2CCCCN2)C1 [Cobimetinib],difference between the calculated combinatorial index (BLISS) and the observed combinatorial effect,A2780,−0.0105
same,difference between the calculated combinatorial index (BLISS) and the observed combinatorial effect,IMR90,−0.0073
same,difference between the calculated combinatorial index (BLISS) and the observed combinatorial effect,HEPG2,−0.0133
same,difference between the calculated combinatorial index (BLISS) and the observed combinatorial effect,MHHES1,−0.0055
same,difference between the calculated combinatorial index (BLISS) and the observed combinatorial effect,PANC1,0.0747
same,difference between the calculated combinatorial index (BLISS) and the observed combinatorial effect,HCT116,−0.0279
same,difference between the calculated combinatorial index (BLISS) and the observed combinatorial effect,COLO205,0.0185
same,difference between the calculated combinatorial index (BLISS) and the observed combinatorial effect,SW620,−0.0609
same,difference between the calculated combinatorial index (BLISS) and the observed combinatorial effect,SKMEL5,−0.0872
same,difference between the calculated combinatorial index (BLISS) and the observed combinatorial effect,U2OS,−0.0663
same,difference between the calculated combinatorial index (BLISS) and the observed combinatorial effect,U87MG,0.0347
same,difference between the calculated combinatorial index (BLISS) and the observed combinatorial effect,HT29,0.0382
same,difference between the calculated combinatorial index (BLISS) and the observed combinatorial effect,GRANTA-519,−0.0008
